In patent US20250213547A1, “METHODS OF TREATING NEUROLOGICAL DISEASES” (priority 2022, published 2025):
“And” between values parts separate entries of the source, which are not always exact repeats. Identical values can stand only once. Like-named read-outs stand apart in the source and are kept apart here.

Test: Healthy Japanese subjects, Part 2 (100, 200, 300 mg BID up-titration): PK of TAK-935 and M-I
Format: in vivo, human
Conditions: for AUlast/D (dose-normalized): mean (% CV); for AUC / Cmax / Tmax / Vd/F / AUC(0-t) / half-life: human, oral; for Vd/F: read-out: Vz/F; for half-life: read-out: t1/2z (terminal disposition phase half-life) (converted)
Experimental: This study consisted of 2 parts, and was a randomized, double-blind, placebo-controlled study to assess safety, tolerability, and PK and PD of TAK-935 when administered orally in healthy Japanese subjects.
TAK-935 or placebo was administered to the 9 subjects at the dose of 100 mg BID from Day 1 to Day 7, then 200 mg BID from Day 8 to Day 14, and finally 300 mg BID from Day 15 to Day 21, and safety, PK and PD were investigated. The planned dose levels of TAK-935 to be evaluated are outlined in Table 40a.
After the screening visit, eligible participants checked—in on Day-2. On Day 1, eligible participants were randomized 6:3 to TAK-935 or placebo in double-blinded fashion. No stratification variables were used for randomization. Study drug was administered every day by oral administration of multiple dosing with up-titration of TAK-935 to 9 subjects firstly at 100 mg BID from Day 1 to Day 7, then at 200 mg BID from Day 8 to Day 14, and finally at 300 mg BID from Day 15 to Day 21, successively. The subjects were discharged on Day 24. Intensive PK samplings were performed on Day 1, Day 7, Day 14 and Day 21.
Subjects received multiple oral doses of TAK-935 or placebo escalating from 100 mg BID, 200 mg BID, and then to 300 mg BID with 150 mL of water for 7 days per each dose level. For the morning dose, subjects were kept fasted for at least 8 hours before administration and up to 2 hours after administration. The evening dose was administered at any time between 8 hours and 12 hours after the morning dose, but prior to the evening meal except for Days 1, 7, 14, and 21. On Days 1, 7, 14, and 21, the evening dose was administered 12 hours after the morning dose and prior to the evening meal. • Identity of Study Drugs • Study drug refers to TAK-935 100 mg tablet and matching placebo. • Compound: Code name: TAK-935 • Dosage forms: TAK-935 100 mg tablets and matching placebo tablets were used in this study. The TAK-935 tablets and placebo tablets were yellow-red film-coated tablets for oral administration.
Blood samples for PK analysis of TAK-935 and its metabolites (M-I) were collected into blood collection tubes (vacutainer) containing the anticoagulant K2EDTA (Table 40e and Table 40f).
The PK parameters of TAK-935 and its metabolites (M-I) were determined from the concentration-time profiles for all evaluable subjects. Actual sampling times, rather than scheduled sampling times, were used in all computations involving sampling times. The following PK parameters were calculated from plasma concentrations of TAK-935 and its metabolites (M-I), unless otherwise specified: […]

[1] = Day 1 (100 mg BID), Part 2, Median
[2] = Day 1, TAK-935 100 mg BID, plasma, mean
[3] = Day 7 (100 mg BID), Part 2, Median
[4] = Day 7, TAK-935 100 mg BID, plasma, mean
[5] = Day 14 (200 mg BID), Part 2, Median
[6] = Day 14, TAK-935 200 mg BID, plasma, mean
[7] = Day 21 (300 mg BID), Part 2, Median
[8] = Day 21, TAK-935 300 mg BID, plasma, mean
[9] = plasma, 100 mg, Day 1, TAK-935 100 mg BID, plasma, mean
[10] = plasma, 100 mg, Day 7, TAK-935 100 mg BID, plasma, mean
[11] = plasma, 200 mg, Day 14, TAK-935 200 mg BID, plasma, mean
[12] = plasma, 300 mg, Day 21, TAK-935 300 mg BID, plasma, mean

SMILES: O=C(c1cccnc1-c1ccncc1)N1CCC(O)(Cc2ccccc2)CC1 [soticlestat]
- CL/F [1]: 501.5 L/H
- Lambda z [1]: 0.2135 h⁻¹
- T1/2z [1]: 196.5 min
- CL/F [2]: 451.8 L/h
- Lambda z [2]: 0.2042 h⁻¹
- CL/F [3]: 443.0 L/H
- Lambda z [3]: 0.2180 h⁻¹
- T1/2z [3]: 196.2 min
- CL/F [4]: 551.8 L/h
- Lambda z [4]: 0.2325 h⁻¹
- AUlast/D (dose-normalized) (Day 7, TAK-935 100 mg BID, plasma): 2.238 (49.3) h*ng/mL/mg
- CL/F [5]: 254.0 L/H
- Lambda z [5]: 0.2685 h⁻¹
- T1/2z [5]: 154.5 min
- CL/F [6]: 276.7 L/h and 276.4 L/h
- Lambda z [6]: 0.2775 h⁻¹
- AUlast/D (dose-normalized) (Day 14, TAK-935 200 mg BID, plasma): 4.298 (44.9) h*ng/mL/mg
- CL/F [7]: 147.0 L/H
- Lambda z [7]: 0.3095 h⁻¹
- T1/2z [7]: 134.4 min
- CL/F [8]: 158.0 L/h
- Lambda z [8]: 0.2708 h⁻¹
- AUlast/D (dose-normalized) (Day 21, TAK-935 300 mg BID, plasma): 6.725 (25.2) h*ng/mL/mg
- Mean t1/2z (TAK-935, Day 1, 100 mg BID): 359.3 min
- Mean t1/2z (TAK-935, Day 7, 100 mg BID): 217.8 min
- Mean t1/2z (TAK-935, Day 14, 200 mg BID): 157.2 min
- Mean t1/2z (TAK-935, Day 21, 300 mg BID): 175.6 min
- accumulation of Cmax and AUC (TAK-935, multiple dose administration): < 6%
- AUC (plasma, 100 mg, Day 1 (100 mg BID), Part 2, Geo Mean, read-out: AUC1ast): 209 ng·h/mL
- AUC (plasma, 100 mg, Day 1 (100 mg BID), Part 2, Geo Mean, read-out: AUCtau): 209 ng·h/mL
- Cmax (plasma, 100 mg, Day 1 (100 mg BID), Part 2, Geo Mean, read-out: Cmax): 201 ng/mL
- Tmax (plasma, 100 mg, Day 1 (100 mg BID), Part 2, Mean, read-out: Tmax): 52.5 min
- AUC (plasma, 100 mg, Day 1 (100 mg BID), Part 2, Median, read-out: AUC1ast): 160 ng·h/mL
- AUC (plasma, 100 mg, Day 1 (100 mg BID), Part 2, Median, read-out: AUCtau): 160 ng·h/mL
- Cmax (plasma, 100 mg, Day 1 (100 mg BID), Part 2, Median, read-out: Cmax): 146 ng/mL
- Vd/F (plasma, 100 mg, Day 1 (100 mg BID), Part 2, Median): 2450 L
- AUC(0-t) [9]: 232 ng·h/mL
- AUC (plasma, 100 mg, Day 1, TAK-935 100 mg BID, plasma, mean, read-out: AUCτ (AUC during a dosing interval)): 232 ng·h/mL
- Cmax (plasma, 100 mg, Day 1, TAK-935 100 mg BID, plasma, mean, read-out: Cmax): 255 ng/mL
- Vd/F [9]: 4100 L
- half-life [9]: 359 min
- Tmax (plasma, 100 mg, Day 1, TAK-935 100 mg BID, plasma, median, read-out: tmax): 45 min
- AUC (plasma, 100 mg, Day 7 (100 mg BID), Part 2, Geo Mean, read-out: AUC1ast): 201 ng·h/mL
- AUC (plasma, 100 mg, Day 7 (100 mg BID), Part 2, Geo Mean, read-out: AUCtau): 202 ng·h/mL
- Cmax (plasma, 100 mg, Day 7 (100 mg BID), Part 2, Geo Mean, read-out: Cmax): 146 ng/mL
- Tmax (plasma, 100 mg, Day 7 (100 mg BID), Part 2, Mean, read-out: Tmax): 50 min
- AUC (plasma, 100 mg, Day 7 (100 mg BID), Part 2, Median, read-out: AUC1ast): 226 ng·h/mL
- AUC (plasma, 100 mg, Day 7 (100 mg BID), Part 2, Median, read-out: AUCtau): 226 ng·h/mL
- Cmax (plasma, 100 mg, Day 7 (100 mg BID), Part 2, Median, read-out: Cmax): 148 ng/mL
- Vd/F (plasma, 100 mg, Day 7 (100 mg BID), Part 2, Median): 2600 L
- AUC(0-t) [10]: 224 ng·h/mL
- AUC (plasma, 100 mg, Day 7, TAK-935 100 mg BID, plasma, mean, read-out: AUCτ (AUC during a dosing interval)): 224 ng·h/mL
- Cmax (plasma, 100 mg, Day 7, TAK-935 100 mg BID, plasma, mean, read-out: Cmax): 204 ng/mL
- Vd/F [10]: 2940 L
- half-life [10]: 218 min
- Tmax (plasma, 100 mg, Day 7, TAK-935 100 mg BID, plasma, median, read-out: tmax): 30 min
- Tmax (plasma, 100 mg, TAK-935, Day 1, 100 mg BID, read-out: Median Tmax): 45 min
- AUC (plasma, 100 mg, TAK-935, Day 1, first dose 100 mg BID, read-out: Mean AUCτ): 232 ng·h/mL
- Cmax (plasma, 100 mg, TAK-935, Day 1, first dose 100 mg BID, read-out: mean Cmax): 255 ng/mL
- AUC (plasma, 100 mg, TAK-935, Day 7, 100 mg BID, read-out: Mean AUCτ): 224 ng·h/mL
- Cmax (plasma, 100 mg, TAK-935, Day 7, 100 mg BID, read-out: mean Cmax): 204 ng/mL
- AUC (plasma, 200 mg, Day 14 (200 mg BID), Part 2, Geo Mean, read-out: AUC1ast): 788 ng·h/mL
- AUC (plasma, 200 mg, Day 14 (200 mg BID), Part 2, Geo Mean, read-out: AUCtau): 789 ng·h/mL
- Cmax (plasma, 200 mg, Day 14 (200 mg BID), Part 2, Geo Mean, read-out: Cmax): 836 ng/mL
- Tmax (plasma, 200 mg, Day 14 (200 mg BID), Part 2, Mean, read-out: Tmax): 40 min
- AUC (plasma, 200 mg, Day 14 (200 mg BID), Part 2, Median, read-out: AUC1ast): 794 ng·h/mL
- AUC (plasma, 200 mg, Day 14 (200 mg BID), Part 2, Median, read-out: AUCtau): 794 ng·h/mL
- Cmax (plasma, 200 mg, Day 14 (200 mg BID), Part 2, Median, read-out: Cmax): 1030 ng/mL
- Vd/F (plasma, 200 mg, Day 14 (200 mg BID), Part 2, Median): 1030 L
- AUC(0-t) [11]: 860 ng·h/mL
- AUC (plasma, 200 mg, Day 14, TAK-935 200 mg BID, plasma, mean, read-out: AUCτ (AUC during a dosing interval)): 861 ng·h/mL
- Cmax (plasma, 200 mg, Day 14, TAK-935 200 mg BID, plasma, mean, read-out: Cmax): 980 ng/mL
- Vd/F [11]: 1090 L
- half-life [11]: 157 min
- Tmax (plasma, 200 mg, Day 14, TAK-935 200 mg BID, plasma, median, read-out: tmax): 30 min
- AUC (plasma, 200 mg, TAK-935, Day 14, 200 mg BID, read-out: Mean AUCτ): 861 ng·h/mL
- Cmax (plasma, 200 mg, TAK-935, Day 14, 200 mg BID, read-out: mean Cmax): 980 ng/mL
- AUC (plasma, 300 mg, Day 21 (300 mg BID), Part 2, Geo Mean, read-out: AUC1ast): 1960 ng·h/mL
- AUC (plasma, 300 mg, Day 21 (300 mg BID), Part 2, Geo Mean, read-out: AUCtau): 1960 ng·h/mL
- Cmax (plasma, 300 mg, Day 21 (300 mg BID), Part 2, Geo Mean, read-out: Cmax): 1940 ng/mL
- Tmax (plasma, 300 mg, Day 21 (300 mg BID), Part 2, Mean, read-out: Tmax): 32.5 min
- AUC (plasma, 300 mg, Day 21 (300 mg BID), Part 2, Median, read-out: AUC1ast): 2040 ng·h/mL
- AUC (plasma, 300 mg, Day 21 (300 mg BID), Part 2, Median, read-out: AUCtau): 2040 ng·h/mL
- Cmax (plasma, 300 mg, Day 21 (300 mg BID), Part 2, Median, read-out: Cmax): 1600 ng/mL
- Vd/F (plasma, 300 mg, Day 21 (300 mg BID), Part 2, Median): 620 L
- AUC(0-t) [12]: 2020 ng·h/mL
- AUC (plasma, 300 mg, Day 21, TAK-935 300 mg BID, plasma, mean, read-out: AUCτ (AUC during a dosing interval)): 2020 ng·h/mL
- Cmax (plasma, 300 mg, Day 21, TAK-935 300 mg BID, plasma, mean, read-out: Cmax): 2060 ng/mL
- Vd/F [12]: 640 L
- half-life [12]: 176 min
- Tmax (plasma, 300 mg, Day 21, TAK-935 300 mg BID, plasma, median, read-out: tmax): 30 min
- AUC (plasma, 300 mg, TAK-935, Day 21, 300 mg BID, read-out: Mean AUCτ): 2020 ng·h/mL
- Cmax (plasma, 300 mg, TAK-935, Day 21, 300 mg BID, read-out: mean Cmax): 2060 ng/mL
- Tmax (plasma, TAK-935, Day 7, Day 14 and Day 21, read-out: Median Tmax): 30 min
